Results: US20240150339A1, “Compounds and Their Use as PDE4 Activators” (Mironid Limited, priority 2021, published 2024)

Key:
[1] = target: T1, PDE4D5 (Homo sapiens, UniProt Q08499); assay: PDE assay, activation of full-length human PDE4D5 long form ([3H]cAMP radio-assay); assay type: biochemical; conditions: 30 μM test compound; mean % increase in counts over basal activity
T1 construct: Using Full-Length Human PDE4 Isoforms: Long Forms PDE4D5, PDE4C3, PDE4B1 and Short Form PDE4B2; made in house; cytosol fraction of the cell lysate, not purified
Outline: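 Cytosol (100,000 g) from HEK293 cells overexpressing full-length human PDE4 was preincubated with compound for 15 min at room temperature in 10 mM Tris/5 mM MgCl2. Reaction ran with 1 μM [3H]cAMP for 10 min at 30° C, then snake venom conversion, Dowex separation and scintillation counting; activity reported as % increase.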

[2] = target: T2, PDE4C3 (Homo sapiens, UniProt Q08493); assay: PDE assay, activation of full-length human PDE4C3 long form ([3H]cAMP radio-assay); assay type: biochemical; conditions: 30 μM test compound; mean % increase in counts over basal activity
T2 construct: Using Full-Length Human PDE4 Isoforms: Long Forms PDE4D5, PDE4C3, PDE4B1 and Short Form PDE4B2; made in house; host or cells: HEK 293 transfected with pcDNA3.1 or pDEST PDE4 expression vector; cytosol fraction of the lysate by analogy to PDE4D5
From the text: Experiment 1: Measurement of Modulation of Enzyme Activity by PDE4 Long Form Activators of the Present Invention Using Full-Length Human PDE4 Isoforms: Long Forms PDE4D5, PDE4C3, PDE4B1 and Short Form PDE4B2
(Marchmont, R. J. and Houslay, M. D. Biochem. J. 187: 381-92, 1980)
For transient transfection of exogenous PDE4 long isoforms, HEK 293 cells were transfected with pcDNA3.1 or pDEST™ PDE4 expression vectors using Lipofectamine LTX/Plus reagent (Invitrogen) as outlined by the manufacturer. […]
HEK-PDE4D5 cells were seeded out in 100 mm plates and incubated at 37° C. in an atmosphere of 5% CO2, 95% air. Cell lysates were prepared using KHEM buffer [50 mM KCl, 10 mM EGTA, 50 mM HEPES (pH 7.2), 1.92 mM MgCl2].
To prepare the cell lysates, the 100 mm plates containing the cells were placed on ice and washed with ice-cold PBS (phosphate buffered saline, pH 7.4). KHEM buffer (500 μl) was added to the cells. Cells were then scraped off the plate and triturated using a needle (BD Microlance™ 0.8, 40 mm). The lysed cells were then centrifuged at 2000 rpm for 10 minutes to remove cell debris and the supernatant (cell lysate containing recombinant PDE4D5) was transferred to a fresh tube and kept on ice.
The cell lysate containing recombinant PDE4D5 was transferred into a centrifuge tube and placed into an ultracentrifuge (BECKMAN COULTER) and spun at high speed (100,000 g) for 30 minutes at 4° C. The cytosol fraction was then collected and its protein amount determined using a BCA protein assay.
PDE assays were performed in thin walled V-bottomed 96-well plates. The assays were performed at a final concentration of 10 mM Tris/5 mM MgCl2 μlus PDE4D5 cell lysate cytosol fraction, containing over-expressed PDE4D5, with and without test compound. The lysate/compound mix were incubated together for 15 min at room temperature on an orbital shaker prior to addition of [^3H] cAMP (final concentration 1 μM [^3H] cAMP; Perkin Elmer) to a final volume of 50 μl per reaction. The reactions were then incubated for 10 minutes at 30° C., terminated by heating for 2 min at 95° C. and allowed to cool. Snake venom (12.5 μl of 1 mg/ml; Crotalus atrox, Sigma) was then added and the plates were agitated and incubated for a further 15 minutes at 30° C. Dowex ion exchange resin (Sigma, chloride form, 200-400 mesh; 200 μl; prepared as a 1:1 Dowex: water stock, thoroughly re-suspended and diluted 2:1 with ethanol) was then added to each well and the plates incubated for 15 min at room temperature on an orbital shaker ensuring sufficient agitation for resin suspension (550 RPM). The reaction mixture was then transferred to a 96 well filter plate (Millipore; […] pore size) and filtered into a receiving 96-well plate to remove the dowex suspension. 30 μL of the filtered solution was then transferred to the wells of an Opti-plate (Perkin Elmer) 96 well assay plate and 120 μl of Microscint 40 scintillation fluid was added. The plate was then placed on an orbital shaker for 10 min at high speed (900 RPM) to mix the sample with scintillation fluid prior to quantitation using a plate based scintillation counter (Top-Count).
The % increase in counts in the presence of test compound at a particular concentration indicates the % increase in enzyme activity at that concentration.

T1 sequence (Q08499 1-745 isoform Q08499-6): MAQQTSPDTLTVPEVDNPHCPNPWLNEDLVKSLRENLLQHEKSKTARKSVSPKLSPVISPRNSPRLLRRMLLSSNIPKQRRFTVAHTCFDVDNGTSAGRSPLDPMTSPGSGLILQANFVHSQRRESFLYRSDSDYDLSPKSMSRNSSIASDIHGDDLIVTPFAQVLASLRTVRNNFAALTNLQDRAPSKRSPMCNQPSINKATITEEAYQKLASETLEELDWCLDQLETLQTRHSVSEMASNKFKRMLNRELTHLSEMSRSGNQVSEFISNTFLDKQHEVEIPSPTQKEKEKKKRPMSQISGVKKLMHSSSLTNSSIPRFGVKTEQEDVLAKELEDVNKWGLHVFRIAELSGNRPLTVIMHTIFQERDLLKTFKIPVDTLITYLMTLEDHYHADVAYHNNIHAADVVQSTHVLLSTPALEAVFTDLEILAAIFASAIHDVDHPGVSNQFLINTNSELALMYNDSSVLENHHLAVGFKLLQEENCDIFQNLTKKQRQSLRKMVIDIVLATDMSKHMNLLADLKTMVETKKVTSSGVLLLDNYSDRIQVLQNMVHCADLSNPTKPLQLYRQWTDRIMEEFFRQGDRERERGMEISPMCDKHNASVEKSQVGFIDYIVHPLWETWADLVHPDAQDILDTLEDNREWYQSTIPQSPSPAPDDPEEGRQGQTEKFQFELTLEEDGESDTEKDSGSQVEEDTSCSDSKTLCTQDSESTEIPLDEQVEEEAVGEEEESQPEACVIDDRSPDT
T2 sequence (Q08493 1-680 isoform Q08493-3): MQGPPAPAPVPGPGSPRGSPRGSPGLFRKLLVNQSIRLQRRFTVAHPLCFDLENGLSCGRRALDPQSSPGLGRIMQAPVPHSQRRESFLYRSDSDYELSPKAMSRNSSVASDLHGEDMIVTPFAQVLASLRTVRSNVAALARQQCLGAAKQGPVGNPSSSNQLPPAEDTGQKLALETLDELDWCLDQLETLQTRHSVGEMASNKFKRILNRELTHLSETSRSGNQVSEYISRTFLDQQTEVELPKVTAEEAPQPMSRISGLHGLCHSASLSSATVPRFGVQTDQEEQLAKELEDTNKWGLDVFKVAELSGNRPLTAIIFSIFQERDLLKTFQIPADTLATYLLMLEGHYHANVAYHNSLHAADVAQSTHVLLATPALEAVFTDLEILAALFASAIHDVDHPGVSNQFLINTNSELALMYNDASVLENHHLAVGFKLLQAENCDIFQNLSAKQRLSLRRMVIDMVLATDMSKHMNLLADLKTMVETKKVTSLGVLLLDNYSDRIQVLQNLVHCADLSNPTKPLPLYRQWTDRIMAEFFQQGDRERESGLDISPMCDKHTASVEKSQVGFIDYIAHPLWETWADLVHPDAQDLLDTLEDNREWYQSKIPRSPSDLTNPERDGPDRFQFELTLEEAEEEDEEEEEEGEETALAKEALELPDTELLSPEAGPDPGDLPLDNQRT

- activation at 30 µM [1]: 109%
- activation at 30 µM [2]: 105%
Compound: Cc1ncccc1-c1nc2ccc(C(=O)N[C@H]3CCOc4ccccc43)cc2s1 [Example 7, (S)-N-(chroman-4-yl)-2-(2-methylpyridin-3-yl)benzo[d]thiazole-6-carboxamide]
